We go through 9 compounds from patent US20100267753A1, “METHODS OF TREATING DISORDERS ASSOCIATED WITH PROTEIN KINASE CK2 ACTIVITY” (priority 2009, published 2010).

As a reminder, the IC90 is the concentration at which the effect reaches the 90% level. Low readings indicate greater potency, high ones weaker potency. As a reminder, the IC50 is the concentration that gives 50% inhibition. The term AUC(0-inf) denotes the area under the concentration-time curve extrapolated to infinity. Low readings indicate less exposure, high ones more exposure. By Cmax is commonly meant the highest concentration seen after dosing. The term Tmax denotes the time from dosing to the highest level.

In data set [1] the test system is CFA-induced thermal hyperalgesia. In words: CFA-induced thermal hyperalgesia model (Hargreaves). Conditions: single intraperitoneal dose 50 mg/kg; 1, 2, and 4 hours after administration. In kind it is in vivo, ICR mice. On the procedure:
The observations of pain responses were done blindly.
[…] On day 4, test subjects received a single injection of CFA (20 microliters) subcutaneously in the plantar surface of the left rear paw. CFA was injected subcutaneously into the plantar surface of the left hind paw of each test subject, under isoflurane anesthesia. […] On day 5, thermal responses were measured prior to treatment with the compound and again 1, 2, and 4 hours after treatment with […]. Withdrawal latencies were measured in response to thermal stimulus by the Hargreaves method. Naproxen was used as a positive control.

Data set [2] relates to fresh human PBMCs. The data set can be described thus: PBMC assay, host cell cytotoxicity. In kind it is cell-based. Conditions: for CC50: PBMCs, read-out: TC50 (the source's name).
Data set [3] relates to HIV-1. In words: U1 latent infection assay, antiviral (reverse transcriptase). The format is cell-based. Conditions: U1 latent/induced. As to the method: Histocytic leukemia cell line U937, latently infected with HIV-1, are treated with TNFα to induce virus expression in the presence of test compound. Antiviral activity is determined as a reduction in reverse transcriptase after 72 hr incubation.
(§1) TI=TC/IC; also referred to as Therapeutic Index values (TI) or Antiviral Index (AI)
The histocytic leukemia cell line U937, latently infected with HIV-1, was treated with TNFα to induce virus expression in the presence of test compound. Antiviral activity was determined as a reduction in reverse transcriptase after 72 hr incubation. Temacrazine, an inhibitor of HIV transcription initiation, was used as the positive control for the assay.

The subject of data set [4] is U937, latently infected with HIV-1 (U1 cells). In words: U1 latent infection assay, host cell cytotoxicity. In kind it is cell-based. Conditions: U1 latent/induced, 72 hr; read-out: TC50 (the source's name).
For data set [5], the system named is 92HT599 (CXCR4-tropic HIV-1 Subtype B virus). In words: PBMC assay, HIV-1 92HT599. In kind it is cell-based. Conditions: Virus 92HT599, PBMCs. On the procedure: (§2) Acute infection of HIV-1 isolates (CXCR4-tropic HIV-1 Subtype B and CCR5-tropic HIV-1 Subtype) using fresh human PBMCs from multiple donors (PMA and IL-2 stimulated). Antiviral activity determined as a reduction in reverse transcriptase after 7-day incubation.
as §1
(§3) Antiviral activity was determined as a reduction in reverse transcriptase after 7-day incubation. AZT, a nucleoside analog reverse transcriptase inhibitor, was used as the positive control for the assay.
(§4) 92HT599 is a CXCR4-tropic HIV-1 Subtype B virus. 91US005 is CCR5-tropic HIV-1 Subtype B virus.

The subject of data set [6] is 91US005 (CCR5-tropic HIV-1 Subtype B virus). In words: PBMC assay, HIV-1 91US005. Conditions: Virus 91US005, PBMCs. In kind it is cell-based. On the procedure:
as §2, §1, §3, §4

Data set [7] can be described thus: U1 latent infection assay, host cell cytotoxicity. In kind it is cell-based. Conditions: human, U1 latent/induced, read-out: TC50.
Data set [8] is described as follows: PBMC assay, host cell cytotoxicity. Conditions: human; PBMCs; read-out: TC50. In kind it is cell-based, human.
Data set [9] deals with eight CCR5-tropic HIV-1 clinical isolates. The data set can be described thus: CCR5-tropic HIV-1 clinical isolates in fresh human PBMCs. Conditions: FIG. 5, fresh human PBMCs. In kind it is cell-based.
The test system of data set [10] is formalin-induced persistent pain. In words: Formalin-induced persistent pain model (flinching). The format is in vivo, ICR mice. Conditions: 3 mg/kg, subcutaneously injected, positive control. On the procedure: See Hunskaar, et al., “The formalin test in mice: Dissociation between inflammatory and non-inflammatory pain,” Pain, vol. […] 89, 53-63 (2000). These tests were conducted with ICR mice, in accordance with guidelines established by the International Association for the Study of Pain. Compounds of the invention were used as solutions of about 3-20 mg/mL in aqueous solution at about pH 8. […] The test animals were monitored for at least 40 minutes, during which time the number of flinches occurring during each 5-minute period were observed and recorded. A cohort of 12 animals were used for each dose level of each compound tested.
The compounds were administered orally in a single dose, of 30, 100, and 200 mg/kg, one hour prior to injection of formalin Pain response was measured by flinching frequency.

Data set [11] can be described thus: Pharmacokinetics in mouse (IV bolus or oral dose). The format is in vivo. Conditions: mice; for Cmax: read-out: Cmax-obs; for half-life: read-out: t1/2 (converted). As to the method: The pharmacokinetics properties of drugs were investigated in three species, following an intravenous (IV) bolus or oral (PO) dose of Compound K at the dosages indicated in the chart. Blood samples were collected at predetermined times and the plasma separated. Plasma was separated from the blood samples collected at 5, 15 and 30 minutes and 1, 2, 4, 8 and 24 hours post-dose.
Drug levels were quantified by the LC/MS/MS method described below. Noncompartmental pharmacokinetic analysis was applied for intravenous administration. […] The terminal t1/2 and C0 were calculated using the last three and the first three data points, respectively
Bioanalysis was performed using a Quattro Micro LC/MS/MS instrument in the MRM detection mode, with an internal standard (1S). Briefly, 15 μL plasma samples were prepared for analysis using protein precipitation with 120 μL of acetonitrile. The supernatants were transferred into a 96 well plate and subjected to LC-MS/MS analysis using a Phenomenex Polar-RP HPLC column. The mobile phases were 10 mM NH4HCO3 in water (Solution-A) and 10 mM NH4HCO3 in methanol (Solution-B). The column was initially equilibrated with 25% Solution-B and followed with 100% Solution B over 5 minutes. […] Quantitation of the analytes was performed in the batch mode with two bracketing calibration curves according to the bioanalytical sample list.

The mark [12] stands for this setting: TNFα, reverse transcriptase after 72 hr.
Where [13] appears, read: Human immunodeficiency virus 1, 72 h, 72 hr, positive control.
Where [14] appears, read: Human immunodeficiency virus 1, PBMC, 168 h, 7-day incubation.
Setting [15] is: Human immunodeficiency virus 1, PBMC.

“And” between values parts separate entries of the source, which are not always exact repeats. Equal entries are not always repeated. Where two headings read alike, the source gives them in different places.

Turning to `COc1ccc2cc([C@H](C)C(=O)O)ccc2c1` [naproxen, reference compound], the “effect on CFA-induced thermal hyperalgesia” value in [1] was “significantly reversed the CFA-induced thermal hyperalgesia”.
`O=C(O)c1ccc2c(c1)nc(Nc1cccc(C(F)(F)F)c1)c1nc(NC3CC3)ncc12` [Compound 2]: in data set [2], the “cytotoxicity in PBMC's” value was “minimal cytotoxicity”.
Take `O=C([O-])c1ccc2c(c1)nc(Nc1cccc(C(F)(F)F)c1)c1nc(NC3CC3)ncc12.[Na+]` [Compound 2 Na]: the “TI (TC50/IC50)” value in data set [3] was >30.9 and >30.7; in data set [5], 2.65; in data set [6] it was 59.6. Also, the concentration for an effect of 90% (IC90) in [3] (72 hr) was more than 100 µM; in [5], 20.6 µM; in data set [6] it was 3.77 µM. For the same compound, the IC50 is 3.24 µM and 3.26 µM in data set [3] (setting [12]); 4.52 µM in [5] (7-day incubation); 0.2 µM in [6] (7-day incubation). For the same compound, the CC50 is more than 100 µM in data set [4] and 12 µM in data set [2].
As for `O=c1c2ccccc2n2nnc3ccc(NCCCN4CCN(CCCNc5ccc6nnn7c8ccccc8c(=O)c5c67)CC4)c1c32` [Temacrazine, reference compound], the IC50 in data set [3] (setting [13]) is 0.00356 µM; in data set [3] (72 hr, positive control) it was 0.00364 µM. Also, the IC90 in data set [3] (setting [13]) was determined as 0.0179 µM; in data set [3] (72 hr, positive control), 0.0169 µM. Moreover, in data set [3], the “TI (TC50/IC50)” value was >28.1 and >27.4. Moreover, the CC50 at 72 h in data set [7] (positive control) is more than 0.1 µM.
Regarding `O=C(O)c1ccc2c(c1)nc(Nc1cccc(Cl)c1)c1ccncc12` [Compound K Na], the IC90 in [3] (Human immunodeficiency virus 1, 72 h, 72 hr) was found to be 18 µM; in [5] (setting [15]), 8.25 µM; in data set [6] (setting [15]), 3.05 µM. For the same compound, the IC50 is 0.7 µM in data set [3] (Human immunodeficiency virus 1, 72 h, TNFα, reverse transcriptase after 72 hr); 3.49 µM in data set [5] (setting [14]); 1.07 µM in data set [6] (setting [14]). The “TI (TC50/IC50)” value in data set [3] was found to be 15.2; in data set [5], 2.18; in data set [6], 7.13. The CC50 at 72 h in data set [7] came to 10.6 µM. In addition, the CC50 at 7 days in data set [8] stood at 7.61 µM.
Regarding `C#Cc1cccc(Nc2nc3cc(C(=O)[O-])ccc3c3cncnc23)c1.[Na+]` [Compound 1 Na], the “TI (TC50/IC50)” value was determined as 87.3 in data set [3], 3.07 in data set [5] and 35.8 in data set [6]. Also, the IC90 was 9.08 µM in data set [3] (72 hr), 2.77 µM in [5] and 1.41 µM in data set [6]. Further, the concentration for half-maximal inhibition (IC50) amounted to 0.2 µM in data set [3] (setting [12]), 1.15 µM in [5] (7-day incubation) and 0.1 µM in data set [6] (7-day incubation). The CC50 in [4] was found to be 17.1 µM; in [2] it was 3.53 µM.
Regarding `Cc1cn([C@H]2C[C@H](N=[N+]=[N-])[C@@H](CO)O2)c(=O)[nH]c1=O` [AZT, reference compound], the “TI (TC50/IC50)” value in [5] is given as more than 665; in data set [6], more than 611. Besides, the 50% inhibitory concentration (IC50) turned out to be 0.0015 µM in data set [5] (positive control) and 0.00164 µM in [6] (positive control). Also, the results for the concentration for an effect of 90% (IC90) in data set [5] (positive control) and in data set [6] (positive control) were 0.00758 µM and 0.00686 µM, respectively. For the same compound, the CC50 in [2] (positive control) is more than 1 µM. Also, in data set [9], the “HIV-1 93TH073 Clade E replication” value is “inhibition of HIV-1 93TH073 Clade E replication”.
Consider `CN1CC[C@]23c4c5ccc(O)c4O[C@H]2[C@@H](O)C=C[C@H]3[C@H]1C5` [morphine, reference compound], for which, in [10], the “formalin-induced flinching, first phase” value is recorded as “reduced formalin-induced flinching” and the “formalin-induced flinching, second phase” value is listed as “reduced formalin-induced flinching”.
In data set [11] (IV 5.4 mg/kg), `C#Cc1cccc(Nc2nc3cc(C(=O)O)ccc3c3cncnc23)c1` [Compound 1, 5-(3-ethynylphenylamino)pyrimido[4,5-c]quinoline-8-carboxylic acid] displayed a CLs of 5.28 mL/min/kg, a Cp0-exp of 29442.03 ng/mL and a Kel of 0.0678 h⁻¹. Also, in [11] (PO 10.8 mg/kg), the “F(0-24 h)” value amounted to 7.2%, the “F(0-Inf)” value is reported as 11.0% and the Kel is 0.0323 h⁻¹. The compound also displayed an AUC(0-t) in data set [11] (mouse, plasma, iv, 5.4 mg/kg, AUC(0-8 h), IV 5.4 mg/kg) of 11200 ng·h/mL. The AUC(0-t) in data set [11] (mouse, plasma, iv, 5.4 mg/kg, IV 5.4 mg/kg, read-out: AUC(0-24 h)) was determined as 15300 ng·h/mL. In [11] (mouse, plasma, po, 10.8 mg/kg, AUC(0-8 h), PO 10.8 mg/kg), this compound yielded an AUC(0-t) of 1050 ng·h/mL. Further, the AUC(0-t) in data set [11] (mouse, plasma, po, 10.8 mg/kg, PO 10.8 mg/kg, read-out: AUC(0-24 h)) amounted to 2210 ng·h/mL. Besides, in [11] (mouse, plasma, IV 5.4 mg/kg), the AUC(0-inf) worked out at 17000 ng·h/mL, the Cmax was determined as 21800 ng/mL and the half-life was 10.2 h. Further, the Vd in data set [11] (mouse, plasma, IV 5.4 mg/kg, read-out: Vd) was 4.67 L/kg. In data set [11] (mouse, plasma, PO 10.8 mg/kg), the total exposure AUC(0-inf) turned out to be 3760 ng·h/mL, the Tmax worked out at 0.25 h, the Cmax turned out to be 800 ng/mL and the half-life was 21.5 h.
